Experimental data reported in the CheMixHub ionic liquid set.
± gives the uncertainty stated by the source.

Assay: xn = mol fraction of the nth substance listed

CCCCCCCCn1cc[n+](C)c1.N#C[S-] + CN1CCCC1=O
viscosity [mPa·s], 101 kPa
Conditions	x1 = 0.0008419	x1 = 0.001327	x1 = 0.002048	x1 = 0.002709	x1 = 0.003576	x1 = 0.004058	x1 = 0.004657	x1 = 0.005393
288.15 K	2.152 ± 0.023	2.16 ± 0.023	2.177 ± 0.023	2.191 ± 0.024	2.199 ± 0.024	2.204 ± 0.024	2.213 ± 0.024	2.229 ± 0.024
298.15 K	1.809 ± 0.02	1.817 ± 0.02	1.827 ± 0.02	1.834 ± 0.021	1.846 ± 0.021	1.857 ± 0.021	1.865 ± 0.021	1.872 ± 0.021
308.15 K	1.572 ± 0.018	1.58 ± 0.018	1.591 ± 0.018	1.599 ± 0.018	1.61 ± 0.018	1.621 ± 0.018	1.631 ± 0.018	1.641 ± 0.018
318.15 K	1.354 ± 0.017	1.37 ± 0.017	1.393 ± 0.016	1.407 ± 0.016	1.417 ± 0.016	1.434 ± 0.017	1.447 ± 0.017	1.458 ± 0.017

CCCCCCCCCCCCOS(=O)(=O)[O-].[Na+] + CC(C)O + O
298 K, 100 kPa, frequency 0.001 MHz
Conditions	electrical conductivity [S/m]
x2 = 0.04868, x3 = 0.9512	0.0308 ± 0.00058
x2 = 0.1358, x3 = 0.8641	0.0155 ± 0.00052

CCCCCCCCCCCCCCCC[n+]1ccccc1.[Cl-] + CS(C)=O + O
electrical conductivity [S/m], 100 kPa
Conditions	293.15 K	298.15 K	303.15 K	308.15 K
x1 = 3.75e-06, x2 = 0.01199	0.0021 ± 0.0011	0.0024 ± 0.0011	0.0024 ± 0.0012	0.0026 ± 0.0012
x1 = 3.9e-06, x2 = 0.02499	0.0019 ± 0.0011	0.002 ± 0.0011	0.0023 ± 0.0011	0.0023 ± 0.0012
x1 = 4.07e-06, x2 = 0.03911	0.0015 ± 0.0011	0.0016 ± 0.0011	0.0017 ± 0.0011	0.0019 ± 0.0011
x1 = 4.26e-06, x2 = 0.05452	0.0014 ± 0.001	0.0015 ± 0.001	0.0017 ± 0.0011	0.0019 ± 0.0011
x1 = 7.5e-06, x2 = 0.01199	0.0037 ± 0.0011	0.0042 ± 0.0012	0.0044 ± 0.0012	0.0047 ± 0.0012
x1 = 7.81e-06, x2 = 0.02499	0.0034 ± 0.0011	0.0036 ± 0.0011	0.0041 ± 0.0012	0.0044 ± 0.0012
x1 = 8.15e-06, x2 = 0.03911	–	0.0032 ± 0.0011	0.0037 ± 0.0012	0.0041 ± 0.0012
x1 = 8.52e-06, x2 = 0.05452	0.0027 ± 0.0011	0.0029 ± 0.0011	–	0.0037 ± 0.0012
x1 = 1.124e-05, x2 = 0.01199	0.0053 ± 0.0011	0.006 ± 0.0011	0.0065 ± 0.0012	0.0071 ± 0.0013
x1 = 1.171e-05, x2 = 0.02499	0.0049 ± 0.0011	0.0053 ± 0.0011	0.0059 ± 0.0012	0.0065 ± 0.0012
x1 = 1.222e-05, x2 = 0.03911	0.0045 ± 0.0011	0.0048 ± 0.0011	0.0055 ± 0.0012	0.0062 ± 0.0012
x1 = 1.278e-05, x2 = 0.05452	0.0041 ± 0.0011	0.0044 ± 0.0011	0.0049 ± 0.0011	0.0055 ± 0.0012
x1 = 1.499e-05, x2 = 0.01199	0.0071 ± 0.0011	0.0078 ± 0.0011	0.0086 ± 0.0012	0.0094 ± 0.0012
x1 = 1.562e-05, x2 = 0.02499	0.0063 ± 0.0011	0.0071 ± 0.0011	0.0077 ± 0.0012	0.0089 ± 0.0013
x1 = 1.63e-05, x2 = 0.03911	0.006 ± 0.0011	0.0065 ± 0.0011	0.0075 ± 0.0012	0.0086 ± 0.0012
x1 = 1.704e-05, x2 = 0.05452	0.0056 ± 0.0011	0.0059 ± 0.0011	0.0066 ± 0.0011	0.0075 ± 0.0012
x1 = 1.874e-05, x2 = 0.01199	0.0085 ± 0.0011	0.0095 ± 0.0011	–	–
x1 = 1.952e-05, x2 = 0.02499	0.0078 ± 0.0011	0.0088 ± 0.0011	0.0097 ± 0.0012	–
x1 = 2.037e-05, x2 = 0.03911	0.0075 ± 0.0011	0.0082 ± 0.0011	0.0095 ± 0.0012	–
x1 = 2.13e-05, x2 = 0.05452	0.0069 ± 0.0011	0.0075 ± 0.0011	0.0083 ± 0.0011	0.0094 ± 0.0012
x1 = 2.249e-05, x2 = 0.01199	0.0095 ± 0.001	–	–	–
x1 = 2.343e-05, x2 = 0.02499	0.0095 ± 0.0011	–	–	–
x1 = 2.444e-05, x2 = 0.03911	0.0091 ± 0.0011	0.0098 ± 0.0011	–	–
x1 = 2.556e-05, x2 = 0.05452	0.0082 ± 0.0011	0.009 ± 0.0011	0.01 ± 0.0011	–
x1 = 2.981e-05, x2 = 0.05452	0.0092 ± 0.001	–	–	–

O=C1O[C@H]([C@@H](O)CO)C(O)=C1O + CCCC[n+]1ccn(C)c1.[Br-] + O
viscosity [mPa·s], 100 kPa
Conditions	293.15 K	298.15 K	303.15 K	308.15 K	313.15 K	318.15 K
x1 = 0.0003765, x2 = 0	1.008 ± 0.032	0.898 ± 0.031	0.804 ± 0.031	0.725 ± 0.031	0.66 ± 0.031	0.607 ± 0.031
x1 = 0.0007293, x2 = 0	1.013 ± 0.032	0.903 ± 0.031	0.809 ± 0.031	0.73 ± 0.031	0.665 ± 0.031	0.612 ± 0.031
x1 = 0.001087, x2 = 0	1.017 ± 0.032	0.908 ± 0.031	0.814 ± 0.031	0.735 ± 0.031	0.67 ± 0.031	0.617 ± 0.031
x1 = 0.001456, x2 = 0	1.023 ± 0.032	0.914 ± 0.031	0.819 ± 0.031	0.74 ± 0.031	0.674 ± 0.031	0.621 ± 0.031
x1 = 0.001827, x2 = 0	1.028 ± 0.032	0.919 ± 0.031	0.825 ± 0.031	0.745 ± 0.031	0.679 ± 0.031	0.626 ± 0.031
x1 = 0.002192, x2 = 0	1.035 ± 0.032	0.924 ± 0.031	0.831 ± 0.031	0.75 ± 0.031	0.684 ± 0.031	0.632 ± 0.031

CC[NH3+].O=[N+]([O-])[O-] + CC#N
100 kPa
Conditions	electrical conductivity [S/m]	viscosity [mPa·s]
278 K, x1 = 0.3	2.52 ± 0.25	–
288 K, x1 = 0.7	2.71 ± 0.27	–
288.08 K, x1 = 0.7	–	20.78 ± 0.67
288.08 K, x1 = 0.98	–	43.7 ± 1.4
288.09 K, x1 = 0.3	–	3.15 ± 0.11
293.09 K, x1 = 0.3	–	2.819 ± 0.096
298 K, x1 = 0.7	3.71 ± 0.37	14.73 ± 0.49
298.1 K, x1 = 0.98	–	33.2 ± 1.1
298.14 K, x1 = 0.2	–	1.406 ± 0.053
308 K, x1 = 0.2	5.19 ± 0.52	–
308 K, x1 = 0.7	4.94 ± 0.49	–
308.09 K, x1 = 0.8	–	14.76 ± 0.48
308.11 K, x1 = 0.9	–	20.7 ± 0.68
308.12 K, x1 = 0.6	–	7.76 ± 0.25
308.14 K, x1 = 0.7	–	10.53 ± 0.34
308.15 K, x1 = 0.3	–	2.292 ± 0.079

CCCCCCCCCCCC[N+](C)(C)C.[Br-] + CS(C)=O + O
298 K, 101 kPa
Conditions	electrical conductivity [S/m]
x2 = 0.05957, x1 = 0.0001378	0.0321 ± 0.00051
x2 = 0.09776, x1 = 0.001524	0.181 ± 0.0029

CCCC[n+]1ccc(C)cc1.F[B-](F)(F)F + O
298.15 K, 101 kPa
Conditions	electrical conductivity [S/m]
x1 = 0.0002198	0.131 ± 0.02
x1 = 0.0004197	0.206 ± 0.02
x1 = 0.0007725	0.357 ± 0.02
x1 = 0.001123	0.486 ± 0.02
x1 = 0.001267	0.554 ± 0.02
x1 = 0.001481	0.638 ± 0.02
x1 = 0.00182	0.757 ± 0.02
x1 = 0.00217	0.871 ± 0.02
x1 = 0.002506	0.979 ± 0.02
x1 = 0.002721	1.01 ± 0.02
x1 = 0.002887	1.07 ± 0.02
x1 = 0.003188	1.19 ± 0.02
x1 = 0.003487	1.27 ± 0.02
x1 = 0.003843	1.36 ± 0.02
x1 = 0.004144	1.44 ± 0.02
x1 = 0.004481	1.52 ± 0.02

NC(N)=O + O + CCCC[n+]1ccn(C)c1.F[B-](F)(F)F
298.15 K, 100 kPa
Conditions	viscosity [mPa·s]
x1 = 0.008492, x2 = 0.9402	1.98 ± 0.1
x1 = 0.01695, x2 = 0.9318	2.01 ± 0.1
x1 = 0.02496, x2 = 0.9237	2.06 ± 0.1
x1 = 0.03322, x2 = 0.9155	2.05 ± 0.1
x1 = 0.0408, x2 = 0.9079	2.15 ± 0.11

OC[C@H]1O[C@@](CO)(O[C@H]2O[C@H](CO)[C@@H](O)[C@H](O)[C@H]2O)[C@@H](O)[C@@H]1O + CCCC[N+](C)(CCCC)CCCC.[Cl-] + O
viscosity [mPa·s], 101.3 kPa
Conditions	x1 = 0.0003585, x2 = 0	x1 = 0.0007185, x2 = 0	x1 = 0.001078, x2 = 0	x1 = 0.00144, x2 = 0	x1 = 0.001799, x2 = 0	x1 = 0.002163, x2 = 0	x1 = 0.002507, x2 = 0
293.15 K	1.016 ± 0.016	1.038 ± 0.016	1.059 ± 0.016	1.081 ± 0.016	1.094 ± 0.016	1.112 ± 0.016	1.133 ± 0.016
298.15 K	0.906 ± 0.016	0.921 ± 0.016	0.935 ± 0.016	0.957 ± 0.016	0.972 ± 0.016	0.987 ± 0.016	1.006 ± 0.016
303.15 K	0.807 ± 0.015	0.817 ± 0.015	0.83 ± 0.015	0.847 ± 0.015	0.861 ± 0.015	0.878 ± 0.015	0.891 ± 0.015
308.15 K	0.725 ± 0.015	0.733 ± 0.015	0.745 ± 0.015	0.759 ± 0.015	0.772 ± 0.015	0.786 ± 0.015	0.8 ± 0.015
313.15 K	0.657 ± 0.015	0.664 ± 0.015	0.674 ± 0.015	0.683 ± 0.015	0.697 ± 0.015	0.71 ± 0.015	0.721 ± 0.015
